# According to PMC10111420, “Optimization of Host Cell-Compatible, Antimicrobial Peptides Effective against Biofilms and Clinical Isolates of Drug-Resistant Bacteria” (ACS Infectious Diseases, 2023):
# Read-outs that look alike come from different tables or passages of the source. Where a SMILES comes first, the peptide text is derived from it. Bridges are numbered along the chain shown (N, C = ends). [ ]: non-standard residue; d: D form.
# Assays:
# [1] = system: Acinetobacter baumannii (PDR) Tulane isolate; experiment: microbe, parasite or virus in culture; details: read-out: MIC, AB (PDR)Tulane
# [2] = system: K. pneumoniae clinical isolates; experiment: microbe, parasite or virus in culture; details: for MIC: Klebsiella pneumoniae
# Protocol: (§1) Subcultures, prepared by inoculating 25 mL of fresh tryptic soy broth (TSB) with 200 μL of an overnight culture, were grown to log phase (OD600 = 0.3–0.6), after which cell counts were determined by measuring the OD600 (1.0 = 5 × 10^8 CFU/mL for E. coli, 4 × 10^8 CFU/mL for K. pneumoniae, 4 × 10^8 CFU/mL for P. aeruginosa, 1.5 × 10^8 CFU/mL for S. aureus). Bacterial cells were diluted to appropriate concentrations in TSB. We used the following clinical bacterial isolates of Klebsiella pneumoniae in this study: Strains KP6, KP46, NDM-1, KP396, and KP398 have been previously described.[43] ST58 strains C2, C3, and I2 are also described.[41] […] MRSA, […] S. aureus strain, is SAP400, a USA400 strain of community-acquired MRSA. […] The second independent set of K. pneumoniae isolates are previously described.[20],[21]
# The antibiotics were serially diluted by a factor of 2:3 horizontally across 96-well plates from Corning, 25 μL per well. One column was reserved for controls. For the assays performed in the presence of RBC, type O+ human RBCs at 0 or 2.5 × 10^9 cells/mL were added in 50 μL aliquots to all wells. […] To assess bacterial growth in the assays with RBC, the OD600 was measured after a second-day inoculation with 10 μL of solution from the original plate added to 100 μL of sterile TSB followed by overnight incubation.
# (§2) Experiments were repeated four to eight times independently, with pairs of replicate measurements on each 96-well plate. After overnight growth, optical densities were measured at 660 nm and the sterilized wells were identified by having O.D. < 0.08. Nonsterilized wells were nearly opaque with OD > 0.6. For each measurement, we recorded the largest dilution that sterilized the bacteria. Statistics are done on dilution numbers, rather than calculated concentrations, because only the former have normal distributions.
# [3] = system: Pseudomonas aeruginosa clinical isolates; experiment: microbe, parasite or virus in culture; details: for MIC: Pseudomonas aeruginosa
# Protocol: as §1
# (§3) The antibiotics were serially diluted by a factor of 2:3 horizontally across 96-well plates from Corning, 25 μL per well. One column was reserved for controls. For the assays performed in the presence of RBC, type O+ human RBCs at 0 or 2.5 × 10^9 cells/mL were added in 50 μL aliquots to all wells. Following a 30-min incubation, 50 μL of TSB, inoculated with 5 × 10^5 CFU/mL, was added to all wells, and plates were incubated overnight at 37 °C. Following overnight incubation at 37 °C, the OD600 was measured (values of less than 0.1 were considered sterilized). To assess bacterial growth in the assays with RBC, the OD600 was measured after a second-day inoculation with 10 μL of solution from the original plate added to 100 μL of sterile TSB followed by overnight incubation.
# as §2
# [4] = system: MRSA SAP400, a USA400 strain; experiment: microbe, parasite or virus in culture
# Protocol: as §1, §3, §2
# [5] = system: 14 clinical isolates of resistant bacterial strains; experiment: Broth dilution, summary over the 14 clinical isolates of the first set; type: cell-based; details: statement for all 14 clinical isolates of the first set; read-out: MIC, all isolates (completely resistant)
# Protocol: In Figure 4B, we plot the fraction of isolates sterilized as functions of antibiotic concentration.
# as §1, §3
# human RBCs = type: cell-based
# Protocol: Human O+ erythrocytes were obtained from Interstate Blood Bank, Inc. Red blood cells were subjected to four or more cycles of centrifugation at 1000g with resuspension in fresh PBS. Following the final wash step, the supernatant was clear and colorless. RBC concentration was determined using a standard hemocytometer.
# Peptide was serially diluted in PBS starting at a concentration of 100 μM. The final volume of peptide in each well was 50 μL. To each well, 50 μL of RBCs in PBS at 2 × 10^8 cells/mL was added. As a positive lysis control, 1% Triton was used. The mixtures were incubated at 37 °C for 1 h, after which they were centrifuged at 1000g for 5 min. After centrifugation, 10 μL of supernatant was transferred to 90 μL of DI H2O in a fresh 96-well plate. The absorbance of released hemoglobin at 410 nm was recorded, and the fractional hemolysis was calculated based on the 100 and 0% lysis controls. At least three independent experiments were performed. Results shown are averages.
# [6] = system: K. pneumoniae clinical isolates
# Protocol: as §1, §3, §2
# [7] = system: Acinetobacter baumannii (PDR) Tulane isolate
# [8] = system: Escherichia coli (ATCC 25922)
# Protocol: All peptide variants were synthesized and purified as described previously.[5],[7] They were tested in broth dilution in the presence and absence of 1 × 10^9 human RBCs per mL, 20% of the concentration in human blood, against Escherichia coli, K. pneumoniae, and Staphylococcus aureus. […] The toxicity of the variants was tested by measuring hemolysis as well as cytotoxicity against human WI-38 fibroblast cells.
# as §1, §3, §2
# [9] = system: WI-38 human fibroblast cells; experiment: in vitro; type: cell-based
# Protocol: The day before cytotoxicity experiments, the 10,000 cells/well were plated in a 96-well tissue-culture plate. […] To perform the cytotoxicity assay, media was removed from the wells and replaced with peptide solutions. […] The plate was read for SYTOX fluorescence every 5 min for an hour with an excitation wavelength of 504 nm and an emission wavelength of 523 nm. Percent cytotoxicity was calculated at 60 min using the 100 and 0% lysis controls. At least three independent experiments were averaged.
# [10] = broth dilution, at least three independent measurements, SE about 40%, highest concentration 150 μM
compound,measurement,setting,value
"CC(C)(O/N=C(\C(=O)N[C@@H]1C(=O)N2C(C(=O)[O-])=C(C[n+]3ccccc3)CS[C@H]12)c1csc(N)n1)C(=O)O [CAZ, ceftazidime]",MIC,[1],> 150 µM
same,MIC,"[2]; ATCC33495, read-out: MIC, KP ATCC 33495",> 150 µM
same,MIC,"[2]; read-out: MIC, KP 6",> 150 µM
same,MIC,"[2]; read-out: MIC, KP 46",> 150 µM
same,MIC,"[2]; read-out: MIC, KP 398",133 µM
same,MIC,"[2]; read-out: MIC, KP 2146NDM-1",> 150 µM
same,MIC,"[2]; read-out: MIC, KP (CRE)",> 150 µM
same,MIC,"[2]; read-out: MIC, KP ST258 C2",> 150 µM
same,MIC,"[2]; read-out: MIC, KP ST258 C3",> 150 µM
same,MIC,"[2]; read-out: MIC, KP ST258 I2",> 150 µM
same,MIC,"[2]; read-out: MIC, KP ST396",> 150 µM
same,MIC,"[3]; read-out: MIC, PA(mucoid)",116 µM
same,MIC,"[3]; read-out: MIC, PA(non-mucoid)",> 150 µM
same,MIC,"[4]; Staphylococcus aureus, read-out: MIC, MRSA USA400",> 150 µM
same,MIC,[5],> 150 µM
CC(C)C[C@@H](NC(=O)[C@@H](CCCNC(=N)N)NC(=O)[C@@H](CCCNC(=N)N)NC(=O)[C@@H](C)NC(=O)[C@@H](Cc1c[nH]c2ccccc12)NC(=O)[C@@H](CCCNC(=N)N)NC(=O)[C@H](N)CCCNC(=N)N)C(=O)N[C@H](C)C(=O)N[C@H](Cc1ccccc1)C(=O)N[C@H](C)C(=O)N[C@H](Cc1ccccc1)C(=O)N[C@H](CCCNC(=N)N)C(=O)N[C@H](CCCNC(=N)N)C(N)=O [D-CONGA] (H-[dR][dR][dW][dA][dR][dR][dL][dA][dF][dA][dF][dR][dR]-NH2),Hemolysis at 100 μM (fractional hemolysis),human RBCs,0.06
same,"MIC, KP 6",[2]; clinical isolates,4.2 µM
same,"MIC, KP 46",[2]; clinical isolates,4.4 µM
same,"MIC, KP 398",[2]; clinical isolates,32 µM
same,"MIC, KP 2146NDM-1",[2]; clinical isolates,15 µM
same,"MIC, KP (CRE)",[2]; clinical isolates,23 µM
same,"MIC, KP ATCC 33495",[2]; clinical isolates,5.0 µM
same,"MIC, KP ST258 C2",[2]; clinical isolates,64 µM
same,"MIC, KP ST258 C3",[2]; clinical isolates,92 µM
same,"MIC, KP ST258 I2",[2]; clinical isolates,3.2 µM
same,"MIC, KP ST396",[2]; clinical isolates,2.0 µM
same,"K. Pneumoniae Isolate MIC, 1000527",[6],> 25 µM
same,"K. Pneumoniae Isolate MIC, 1002565",[6],> 25 µM
same,"K. Pneumoniae Isolate MIC, 1100770",[6],7.3 µM
same,"K. Pneumoniae Isolate MIC, 1100975",[6],14 µM
same,"K. Pneumoniae Isolate MIC, ATCC 43816",[6],5.4 µM
same,"K. Pneumoniae Isolate MIC, ATCC 700721",[6],5.4 µM
same,"K. Pneumoniae Isolate MIC, K6",[6],2.7 µM
same,"K. Pneumoniae Isolate MIC, K 6.1",[6],14 µM
same,"K. Pneumoniae Isolate MIC, K 6.2",[6],14 µM
same,"K. Pneumoniae Isolate MIC, KP 80",[6],14 µM
same,"K. Pneumoniae Isolate MIC, KP NIH 1",[6],> 25 µM
same,"K. Pneumoniae Isolate MIC, KP NIH 10",[6],> 25 µM
same,"K. Pneumoniae Isolate MIC, KP NIH 24",[6],> 25 µM
same,"K. Pneumoniae Isolate MIC, KP NIH 27",[6],> 25 µM
same,"K. Pneumoniae Isolate MIC, KP NIH 29",[6],14 µM
same,"K. Pneumoniae Isolate MIC, KP NIH 30",[6],7.3 µM
same,"K. Pneumoniae Isolate MIC, KP NIH 31",[6],7.3 µM
same,"K. Pneumoniae Isolate MIC, KP NIH 32",[6],> 25 µM
same,"K. Pneumoniae Isolate MIC, KP NIH 33",[6],3.6 µM
same,"MIC, PA(mucoid)",[3]; clinical isolates,4.4 µM
same,"MIC, PA(non-mucoid)",[3]; clinical isolates,1.3 µM
same,"MIC, MRSA USA400",[4]; USA400,2.6 µM
same,"MIC, AB (PDR)Tulane",[7]; PDR) Tulane isolate,2.4 µM
"CC(C)C[C@H](NC(=O)[C@H](CCCNC(=N)N)NC(=O)[C@H](CCCNC(=N)N)NC(=O)[C@H](C)NC(=O)[C@H](Cc1c[nH]c2ccccc12)NC(=O)[C@H](CCCNC(=N)N)NC(=O)[C@H](N)CCCNC(=N)N)C(=O)N[C@@H](C)C(=O)N[C@@H](Cc1ccccc1)C(=O)N[C@@H](C)C(=O)N[C@@H](Cc1ccccc1)C(=O)N[C@@H](CCCNC(=N)N)C(=O)N[C@H](CCCNC(=N)N)C(N)=O [L-CONGA- (R1,R13)] (H-[dR]RWARRLAFAFR[dR]-NH2; N-terminus and C-terminus assumed)",Hemolysis at 100 μM (fractional hemolysis),human RBCs,0.01
same,"MIC in Broth Dilution, E. coli",[8],26 µM
same,EC50,[9],134 µM
CC(C)C[C@@H]1NC(=O)[C@H](CCCNC(=N)N)NC(=O)[C@H](CCCNC(=N)N)NC(=O)[C@H](C)NC(=O)[C@H](Cc2c[nH]c3ccccc23)NC(=O)[C@H](CCCNC(=N)N)NC(=O)[C@H](CCCNC(=N)N)NC(=O)CC[C@@H](C(N)=O)NC(=O)[C@H](CCCNC(=N)N)NC(=O)[C@H](CCCNC(=N)N)NC(=O)[C@H](Cc2ccccc2)NC(=O)[C@H](C)NC(=O)[C@H](Cc2ccccc2)NC(=O)[C@H](C)NC1=O [L-CONGA-E cycl.] (RRWARRLAFAFRRE-NH2; lactam N-14),Hemolysis at 100 μM (fractional hemolysis),human RBCs,0.03
same,"MIC in Broth Dilution, E. coli",[8],23 µM
CC(C)C[C@@H]1NC(=O)[C@H](CCCNC(=N)N)NC(=O)[C@H](CCCNC(=N)N)NC(=O)[C@H](C)NC(=O)[C@H](Cc2c[nH]c3ccccc23)NC(=O)[C@H](CCCNC(=N)N)NC(=O)[C@H](CCCNC(=N)N)NC(=O)[C@H](CCCNC(=N)N)NC(=O)[C@H](CCCNC(=N)N)NC(=O)[C@H](Cc2ccccc2)NC(=O)[C@H](C)NC(=O)[C@H](Cc2ccccc2)NC(=O)[C@H](C)NC1=O [L-CONGA-OH cycl.] (cyclo(RRWARRLAFAFRR)),Hemolysis at 100 μM (fractional hemolysis),human RBCs,0.07
same,"MIC in Broth Dilution, E. coli",[8],13 µM
gentamycin,"MIC, KP 6",[2]; [10],> 150 µM
same,"MIC, KP 46",[2]; [10],1.6 µM
same,"MIC, KP 398",[2]; [10],1.9 µM
same,"MIC, KP 2146NDM-1",[2]; [10],> 150 µM
same,"MIC, KP (CRE)",[2]; [10],5.2 µM
same,"MIC, KP ATCC 33495",[2]; [10],1.9 µM
same,"MIC, KP ST258 C2",[2]; [10],> 150 µM
same,"MIC, KP ST258 C3",[2]; [10],> 150 µM
same,"MIC, KP ST258 I2",[2]; [10],8.3 µM
same,"MIC, KP ST396",[2]; [10],2.0 µM
same,"MIC, PA(mucoid)",[3]; [10],5.5 µM
same,"MIC, PA(non-mucoid)",[3]; [10],8.3 µM
same,"MIC, MRSA USA400",[4]; [10],> 150 µM
same,"MIC, AB (PDR)Tulane",[7]; [10],> 150 µM
